Reference: patent publication US20230012368A1 (Hoffmann-La Roche Inc., priority 2018, published 2023)

System: Acinetobacter baumannii ATCC 17978
Test: Antimicrobial susceptibility testing: 90% growth inhibitory concentration (IC90) determination
Assay type: cell-based
Details: Acinetobacter baumannii, ATCC17978, 16 h, 90% growth inhibitory concentration; Acinetobacter baumannii ATCC17978; Iso-Sensitest broth, OD 600 nm over 16h; read-out: ATCC17978 IC90
Outline: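 Compounds serially twofold diluted (e.g. 50 to 0.097 μM final) in Iso-Sensitest broth, inoculated at ~5×10^(5) CFU/ml, incubated at 35±2° C. OD600 read every 20 minutes over 16h. IC90 taken as concentration inhibiting 90% of growth during logarithmic phase.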

Structure (SMILES)	IC90
Cc1cc(Nc2nccn3c(-c4ccc(OC(F)F)cc4)cnc23)ccc1C(=O)N(C)CCN1C[C@@H](C)O[C@@H](C)C1 [Example 256, 4-[[3-[4-(difluoromethoxy)phenyl]im-idazo[1,2-a]pyrazin-8-yl]amino]-N,2-dimethyl-N-[2-[rac-(2R,6S)-2,6-dimethylmorpholin-4-yl]ethyl]benzamide]	1.9 µM
Cc1cc(Nc2nccn3c(-c4ccc(OC(F)F)cc4)cnc23)ccc1C(=O)N(C)CCCN1CCCCC1 [Example 257, 4-[[3-[4-(difluoromethoxy)phenyl]im-idazo[1,2-a]pyrazin-8-yl]amino]-N,2-dimethyl-N-(3-piperidin-1-ylpropyl)benzamide]	3.6 µM
Cc1cc(Nc2nccn3c(-c4ccc(Cl)c(F)c4F)cnc23)ccc1C(=O)N[C@@H](C)CN [Example 258, N-[(2S)-1-aminopropan-2-yl]-4-[[3-(4-chloro-2,3-difluorophenyl)imidazo[1,2-a]pyrazin-8-yl]amino]-2-methylbenzamide;hydrochlo-ride]	3.6 µM
CN(C)C(=O)c1ccc(Nc2nccn3c(-c4ccc(OC(F)F)cc4)cnc23)cc1CO [Example 259, 4-[[3-[4-(difluoromethoxy)phenyl]im-idazo[1,2-a]pyrazin-8-yl]amino]-2-(hydroxymethyl)-N,N-dimethylbenzamide]	4.1 µM
Cc1cc(Nc2nccn3c(-c4ccc(OC(F)F)cc4)cnc23)ccc1C(=O)N(C)CC1(O)CCNCC1 [Example 260, 4-[[3-[4-(difluoromethoxy)phenyl]im-idazo[1,2-a]pyrazin-8-yl]amino]-N-[(4-hydroxypiperidin-4-yl)methyl]-N,2-dimethylbenzamide;hydrochlo-ride]	4.3 µM
Cc1cc(Nc2nccn3c(-c4ccc(OC(F)F)cc4)cnc23)ccc1C(=O)NCC1(O)CCNCC1 [Example 261, 4-[[3-[4-(difluoromethoxy)phenyl]im-idazo[1,2-a]pyrazin-8-yl]amino]-N-[(4-hydroxypiperidin-4-yl)methyl]-2-methylbenzamide; hydrochlo-ride]	4.9 µM
Cc1cc(Nc2nccn3c(-c4ccc(OC(F)F)cc4)cnc23)ccc1C(=O)N(CCO)CCO [Example 262, 4-[[3-[4-(difluoromethoxy)phenyl]im-idazo[1,2-a]pyrazin-8-yl]amino]-N,N-bis(2-hydroxyethyl)-2-methylbenzamide]	5 µM
COc1ccc(-c2cnc3c(Nc4ccc(C(=O)NCCCN(C)C)cc4)nccn23)cc1Cl [Example 263, 4-[[3-(3-chloro-4-methoxyphenyl)imidazo[1,2-a]pyrazin-8-yl]amino]-N-[3-(dimethylamino)propyl]benz-amide]	5 µM
COc1ccc(-c2cnc3c(Nc4ccc(C(=O)N(C)CCN)cc4)nccn23)cc1 [Example 264, N-(2-aminoethyl)-4-[[3-(4-methoxyphenyl)imidazo[1,2-a]pyrazin-8-yl]amino]-N-methylbenzamide; hydrochlo-ride]	5.1 µM
Cc1cc(Nc2nccn3c(-c4ccc(OC(F)F)cc4)cnc23)ccc1C(=O)N(C)CCN1CCCCC1 [Example 265, 4-[[3-[4-(difluoromethoxy)phenyl]im-idazo[1,2-a]pyrazin-8-yl]amino]-N,2-dimethyl-N-(2-piperidin-1-ylethyl)benzamide]	5.1 µM
Cc1cc(Nc2nccn3c(-c4ccc(OC(F)F)cc4)cnc23)ccc1C(=O)NCCN [Example 266, N-(2-aminoethyl)-4-[[3-[4-(difluoromethoxy)phenyl]im-idazo[1,2-a]pyrazin-8-yl]amino]-2-methylbenzamide;hydrochlo-ride]	5.1 µM
COc1ccc(-c2cnc3c(Nc4ccc(C(=O)N(C)CCN5CCCCC5)c(C)c4)nccn23)cc1F [Example 267, 4-[[3-(3-fluoro-4-methoxyphenyl)imidazo[1,2-a]pyrazin-8-yl]amino]-N,2-dimethyl-N-(2-piperidin-1-ylethyl)benzamide]	5.4 µM
